The record followed here is ChEMBL document CHEMBL1148320, “Characterization of a ligand-receptor binding event using receptor-dependent four-dimensional quantitative structure-activity relationship analysis” (J Med Chem, 2004).

The assay addresses glycogen phosphorylase b, muscle (Oryctolagus cuniculus) (UniProt P00489).

Sequence of glycogen phosphorylase b, muscle (Oryctolagus cuniculus) (P00489 whole entry, looked up): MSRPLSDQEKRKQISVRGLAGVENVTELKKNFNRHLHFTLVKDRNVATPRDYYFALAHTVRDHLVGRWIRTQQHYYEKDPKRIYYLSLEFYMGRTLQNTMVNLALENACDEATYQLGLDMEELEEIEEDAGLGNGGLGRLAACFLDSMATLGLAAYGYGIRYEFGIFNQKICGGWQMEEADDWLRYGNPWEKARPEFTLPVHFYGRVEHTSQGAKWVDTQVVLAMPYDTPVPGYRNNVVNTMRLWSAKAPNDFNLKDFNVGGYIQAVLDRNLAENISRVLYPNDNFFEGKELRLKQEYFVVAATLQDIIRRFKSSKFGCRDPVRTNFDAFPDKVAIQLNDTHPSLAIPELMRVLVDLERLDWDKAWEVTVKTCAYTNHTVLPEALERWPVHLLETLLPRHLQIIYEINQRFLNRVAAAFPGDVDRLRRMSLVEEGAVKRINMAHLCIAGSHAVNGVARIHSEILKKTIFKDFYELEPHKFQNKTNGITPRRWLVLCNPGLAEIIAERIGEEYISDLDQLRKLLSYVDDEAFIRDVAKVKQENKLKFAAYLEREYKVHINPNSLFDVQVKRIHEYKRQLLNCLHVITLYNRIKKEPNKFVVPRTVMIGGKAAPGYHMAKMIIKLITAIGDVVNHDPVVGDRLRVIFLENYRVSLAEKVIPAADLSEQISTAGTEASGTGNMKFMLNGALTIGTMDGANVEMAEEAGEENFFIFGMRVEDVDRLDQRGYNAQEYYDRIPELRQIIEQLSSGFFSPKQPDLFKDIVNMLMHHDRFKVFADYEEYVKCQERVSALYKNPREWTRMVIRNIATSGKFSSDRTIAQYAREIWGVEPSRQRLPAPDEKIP

One may read the Ki as the equilibrium dissociation constant of an inhibitor or competing ligand from its target. Read a low Ki as a stronger hold on the target. As for `OC[C@H]1S[C@H](O)[C@H](O)[C@@H](O)[C@@H]1O`, the inhibition constant (Ki) was found to be 2000 µM.
In turn, `OC[C@H]1O[C@@](O)(CO)[C@H](O)[C@@H](O)[C@@H]1O` registered a Ki of 15800 µM.
In the case of `O=C(CCl)NC1O[C@H](CO)[C@@H](O)[C@H](O)[C@H]1O` (single isomer, unassigned), the affinity, expressed as Ki, was 45 µM.
In the case of `NC(=O)CSC1O[C@H](CO)[C@@H](O)[C@H](O)[C@H]1O` (single isomer, unassigned) it was 21100 µM; in that of `O=C(CSC1O[C@H](CO)[C@@H](O)[C@H](O)[C@H]1O)Nc1ccc(F)cc1F` (single isomer, unassigned), 18900 µM.
In the case of `O=C(CSC1O[C@H](CO)[C@@H](O)[C@H](O)[C@H]1O)Nc1ccccc1` (single isomer, unassigned) it was 3600 µM.
With `CNNC(=O)C1O[C@H](CO)[C@@H](O)[C@H](O)[C@H]1O` (single isomer, unassigned), the Ki was found to be 1800 µM.
Turning to `NC(=O)NC1O[C@H](CO)[C@@H](O)[C@H](O)[C@H]1O` (single isomer, unassigned), the Ki was determined as 140 µM.
As for `CCCC(=O)NC1O[C@H](CO)[C@@H](O)[C@H](O)[C@H]1O` (single isomer, unassigned), the inhibitory constant (Ki) came out at 94 µM.
In the case of `CC(=O)NCC(=O)NC1O[C@H](CO)[C@@H](O)[C@H](O)[C@H]1O` (single isomer, unassigned) it was 990 µM; in that of `CCC(=O)NC1O[C@H](CO)[C@@H](O)[C@H](O)[C@H]1O` (single isomer, unassigned), 39 µM.
